Results: PMC6934184, “Selective DNA-PKcs inhibition extends the therapeutic index of localized radiotherapy and chemotherapy” (The Journal of Clinical Investigation, 2019)

Target: T1, MAPK3 (ERK1) (Homo sapiens, UniProt P27361)
T1 construct: purchased Thermo Fisher Scientific (Life Technologies) SelectScreen
Assay: SelectScreen Z'LYTE
Format: biochemical
Summary of the method: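 SelectScreen broad panel; activity (Z'LYTE, Adapta) plus binding formats. ATP: Km app for CSF1R Z'LYTE; 10 for CAMK1 Adapta. Readout = % per kinase.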

T1 sequence (P27361 whole entry): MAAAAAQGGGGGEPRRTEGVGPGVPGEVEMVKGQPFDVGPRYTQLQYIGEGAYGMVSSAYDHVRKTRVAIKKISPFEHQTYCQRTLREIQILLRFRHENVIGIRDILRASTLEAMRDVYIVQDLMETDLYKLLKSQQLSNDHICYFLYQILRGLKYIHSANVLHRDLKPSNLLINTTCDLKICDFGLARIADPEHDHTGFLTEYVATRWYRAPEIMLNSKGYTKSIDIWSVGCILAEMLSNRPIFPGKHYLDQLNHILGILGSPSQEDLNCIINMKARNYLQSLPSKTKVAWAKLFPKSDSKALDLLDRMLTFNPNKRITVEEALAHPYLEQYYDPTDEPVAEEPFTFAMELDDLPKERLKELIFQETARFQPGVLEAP

For `CN(C(=O)CN1CCOCC1)c1ccc2sc3c(-c4cccc5c(=O)cc(N6CC7CCC(C6)O7)oc45)cccc3c2c1` [NU5455], the inhibition at 1 µM was 9.5%.
